Series [1] has as its system Candida albicans. Kind of series: In vivo protection (PD50) of mice intravenously infected with Candida albicans. Also noted: species or system male CF1 mice. The note with it: single dose one hour after i.v. infection, determined 48 hours after infection. On the procedure: The in vivo activity of Antibiotic 20561, Antibiotic 20562 and the Antibiotic W-10 complex are obtained using male CF1 mice (Carworth Famrs) given a single oral or subcutaneous dose one hour after intraveneous infection with sufficient Candida albicans to kill 80% of the infected mice in 48 hours.
PD50 values were determined 48 hours after infection and are as follows: […]

Series [2] has as its system Saccharomyces cerevisiae ATCC 9763. The series can be described thus: Agar diffusion potency assay against standard solution of Antibiotic 20562. The format is cell-based. On the procedure:
Peak Antibiotic W-10 Complex production is determined by periodic sampling of the fermentation mixture and by subjecting the samples to an agar diffusion assay using Saccharomyces cerevisiae ATCC 9763 as the test organism. The broths are assayed against a standard solution of Antibiotic 20562 having an assigned potency of 1000 mcg/mg. The standard solution is diluted with 10% potassium phosphate buffer (pH 6.0) to make solutions having antibiotic concentrations of 3.2, 4.0, 5.0, 6.25 and 7.8 mcg/ml. The assay is performed substantially as set forth in the Federal Register, Title 21, Chapter 436.105.
Background: A growth-free zone around the sample is the usual read-out of agar diffusion tests.

Series [3] is described as follows: Toxicity (LD50), oral or subcutaneous administration. The series is classed as in vivo.
Series [4] deals with Trichophyton mentagrophytes. The series can be described thus: In vivo topical activity against Trichophyton mentagrophytes skin infection in guinea pigs. Particulars: 1% suspension in polyethylene glycol 400, topical twice daily for ten days from three days after infection. On the procedure:
The skin of fifteen guinea pigs is abraided and infected with a standard culture of Trichophyton mentagropytes. The infected animals are then separated into three groups containing five animals each. Suspensions containing 1% of the respective antibiotics in polyethylene glycol 400 are prepared. Two of the three groups are treated topically, twice daily for ten days commencing three days after infection. The third group (controls) remained untreated throughout the test. All of the animals are tested for infection by culture and observed for skin lesions for a total of 21 days.

A further series deals with Aeromonas sp. W-10. Kind of series: Resistance of Aeromonas sp. W-10 to antibacterial agents (physiological characteristics). The series is classed as cell-based. The source says:
Based upon the physiological characteristics, morphology and the guanine plus cytosine content of isolated DNA, we have classified the organism as a novel member of the genus Aeromonas. We have designated the bacterium Aeromonas sp. W-10, sometimes referred to herein as Aeromonas W-10, and have deposited the microorganism with the United States Department of Agriculture, Northern Utilization Research and Development Division (NRRL), Peoria, Illinois, from whom subcultures are available. The microorganism has been assigned the numerical designation NRRL B-11053. […]. When observed microscopically, Aeromonas sp. W-10 is seen to be a non-spore forming, gram-negative rod approximately 0.5 to 1.0×1.0-1.5 microns. It occurs singly and is motile by means of a single polar flagellum. The organism is facultatively anaerobic, oxidase positive, capable of reducing nitrates to nitrites, insensitive to the vibriostatic compound 2 4-diamino-6,7-diisopropylpteridine (0/129) with a guanine-cytosine content of DNA at 61%. According to Bergy's Manual of Determinative Bacteriology, 8th Edition, the organism is, on the basis of the data set forth, classified as a member of the genus Aeromonas.
The growth and physiological characteristics of Aeromonas sp. All observations were made after seven (7) days of incubation at 28° C. […]

For series [5], the system named is Candida albicans (Wisconsin strain). Kind of series: Topical in vivo activity against Candida albicans intravaginal infection in hamsters. On the procedure: Using a culture of Candida albicans (Wisconsin strain), in Sabourrauds dextrose broth, infect intravaginally, five groups of six female hamsters. Forty-eight and seventy-two hours after infection, make smears of the infected animals and culture the smears. […] (96 hours after infection), make additional smears, culture and commence treatment. One group of six animals (controls) receives no treatment and, therefore, remains infected throughout the test. The remaining four groups of animals are treated with Antibiotic 20562, as 1%, 5%, 10% and 15% suspensions, respectively, the vehicle for suspension being administered on a cotton swab. At the end of the three day treatment the 1%, 5% and 10% groups are 60% cured, the 15% group is completely (100%) cured.

Series [6] has as its system Candida albicans. Kind of series: MIC in vitro in Sabourraud dextrose broth against strains of Candida albicans. The series is classed as cell-based. On the procedure:
Antibiotic 20562 was tested in vitro in Sabourraud dextrose broth against strains of Candida albicans, the Minimum Inhibitory Concentration (MIC) being set forth in Table IV below: […]

Setting [7] is: products of Example 2 step B, precipitated after silica gel chromatography.
Where [8] appears, read: products of Example 3 steps C and D.
Where [9] appears, read: separated antibiotics, crystalline solids from methanol, vs standard of 1000 mcg/mg.

We go through 3 compounds from patent publication US4232006A, “Antibiotic W-10 complex, antibiotic 20561 and antibiotic 20562 as antifungal agents” (Schering Corporation, priority 1978, dated 1980).

In brackets after ≈: the same amount, converted by molar mass. Numbered stars: 1 amine (or outer) side, 2 acyl side, 3 side chain; on linkers, the order of the positions; unused ones are H or OH. Bridge positions count the residues as written; N and C are the ends. Square brackets hold non-standard residues; d marks the D form. Peptide text beside a SMILES is read from it. * marks the point of attachment. NMeT = CN[CH](C(=O)O)[CH](C)O; X1 = CCCCCCCCCCCC(O)CC(=O)*; X2 = CC=C(N[*:1])C(=O)[*:2]; X3 = OCC1OC(*)C(O)C(O)C1O A value given as a limit tells only on which side of the number the result lay.

As a reminder, the LD50 is the dose expected to kill half of the subjects tested. A high value points to lower toxicity. Consider `CC=C(NC(=O)CC(O)CCCCCCCCCCC)C(=O)NC1C(=O)NC(C(C)O)C(=O)NC(Cc2ccc(O)cc2)C(=O)NC(=CC)C(=O)NC(CCC(N)=O)C(=O)NCC(=O)N(C)C(C(C)O)C(=O)NC(Cc2cnc[nH]2)C(=O)OC1C` (centres unmarked) [Antibiotic 20561] (X1-[X2]TTY[X2]QG[NMeT]H; ester 2-C; configuration not given here), for which the values for the PD50 in the series with Candida albicans [1] (oral administration) and with Candida albicans [1] (subcutaneous administration) were 25 mg/kg and 4 mg/kg, respectively. Besides, the results for the “Assay (potency by agar diffusion)” value in series [2] (setting [7]), in series [2] (setting [8]) and in series [2] (setting [9]) were 800 µg/mg, 800 µg/mg and “about 800 mcg/mg”, respectively. In addition, the results for the LD50 in series [3] (oral administration) and in series [3] (subcutaneous administration) were 1000 mg/kg and greater than 1000 mg/kg, respectively. The “Days to become negative: Culture” value in series [4] was 4.8 days. In addition, the “Days to become negative: Lesion” value in series [4] turned out to be 6.3 days.

For `CC(C)c1nc2nc(N)nc(N)c2nc1C(C)C` [0/129, 2 4-diamino-6,7-diisopropylpteridine], the “sensitivity of the organism to the vibriostatic compound” value with Aeromonas sp. W-10 is on record as “insensitive”.

In general, MIC refers to the smallest concentration in the dilution series that meets the test's criterion for growth inhibition. Low values mean a more susceptible organism, high ones a less susceptible organism. Turning to `CC=C(NC(=O)CC(O)CCCCCCCCCCC)C(=O)NC1C(=O)NC(C(C)O)C(=O)NC(Cc2ccc(O)cc2)C(=O)NC(=CC)C(=O)NC(CCC(N)=O)C(=O)NCC(=O)N(C)C(C(C)OC2OC(CO)C(O)C(O)C2O)C(=O)NC(Cc2cnc[nH]2)C(=O)OC1C` (centres unmarked) [Antibiotic 20562] (X1-[X2]TTY[X2]QG[NMeT](X3)H; ester 2-C; configuration not given here), the “cured at end of three day treatment” value is given as 60% in series [5] (1% suspension), 60% in series [5] (5% suspension), 60% in series [5] (10% suspension) and 100% in series [5] (15% suspension). Also, the PD50 was determined as 25 mg/kg in the series on Candida albicans [1] (oral administration) and 4 mg/kg in the series on Candida albicans [1] (subcutaneous administration). Besides, the MIC in the series on Candida albicans [6] (Candida albicans strain 29), against Candida albicans [6] (Candida albicans strain Bevan), with Candida albicans [6] (Candida albicans strain Burke), against Candida albicans [6] (Candida albicans strain Collins), against Candida albicans [6] (Candida albicans strain Fix) and against Candida albicans [6] (Candida albicans strain Lush) was 0.075 µg/mL (≈ 0.0552 µM) in each case. The MIC against Candida albicans [6] (Candida albicans strain Merkel), in the series with Candida albicans [6] (Candida albicans strain Newcomb), with Candida albicans [6] (Candida albicans strain No. 1), against Candida albicans [6] (Candida albicans strain Raub), against Candida albicans [6] (Candida albicans strain Sperk) and against Candida albicans [6] (Candida albicans strain Wisconsin) was 0.075 µg/mL (≈ 0.0552 µM) each time. Also, the “Assay (potency by agar diffusion)” value in series [2] (setting [7]) was 800 µg/mg; in series [2] (setting [8]), 1000 µg/mg; in series [2] (setting [9]) it was “about 1000 mcg/mg”. The values for the LD50 in series [3] (oral administration) and in series [3] (subcutaneous administration) were 800 mg/kg and 600 mg/kg, respectively. Also, the “Days to become negative: Culture” value in series [4] amounted to 5.8 days. The “Days to become negative: Lesion” value in series [4] is 9.0 days.
